Numbers after ± are expanded uncertainties.
Conditions: 101.33 kPa, Liquid

| Structure (SMILES) | mass density (298.15 K) [kg/m3] | speed of sound (298.15 K) [m/s] | mass density (303.15 K) [kg/m3] | mass density (308.15 K) [kg/m3] | speed of sound (308.15 K) [m/s] | mass density (313.15 K) [kg/m3] |
| --- | --- | --- | --- | --- | --- | --- |
| CCCCOCCO [2-butoxyethan-1-ol] | 896.25 ± 1.2 | 1304 ± 6 | 892.03 ± 1.2 | 888.91 ± 1.2 | 1285 ± 6 | 883.4 ± 1.2 |
| Cc1ccc(C)cc1 [1,4-dimethylbenzene] | 856.62 ± 1.4 | 1308 ± 6 | 852.25 ± 1.4 | 847.88 ± 1.5 | 1276 ± 6 | 843.64 ± 1.5 |
| C=C(C)C(=O)OC [methyl methacrylate] | 937.63 ± 0.92 | 1181 ± 5 | 931.74 ± 0.96 | 925.74 ± 1 | 1153 ± 5 | 920.26 ± 1 |
| Cc1ccccc1 [toluene] | 862.2 ± 1.4 | 1304 ± 6 | 857.55 ± 1.4 | 852.86 ± 1.4 | 1262 ± 5 | 848.16 ± 1.5 |
| c1ccccc1 [benzene] | 873.61 ± 1.3 | 1299 ± 6 | 868.29 ± 1.3 | 862.96 ± 1.4 | 1260 ± 5 | 857.97 ± 1.4 |

From the NIST ThermoML archive (doi:10.1021/je034022n)
